# Test results as given in ChEMBL document CHEMBL6071211, “Invention of VH-937, a Potent HIV-1 Maturation Inhibitor with the Potential for Infrequent Oral Dosing in Humans” (ACS Med Chem Lett, 2024).
# Columns and labels:
# [1] = Aqueous solubility of compound; assay type: physicochemical; settings: buffer
# [2] = Metabolic stability in dog liver microsomes assessed as half life; assay type: ADME, Canis lupus familiaris, Microsome
# [3] = system: Human immunodeficiency virus 1; experiment: In vitro antiviral activity against fully replicating wild type pseudotype HIV1 NLRepRluc-P373S assessed as maximum percent inhibition by single cycle assay relative to control; assay type: functional
# [4] = system: Human immunodeficiency virus 1; experiment: Ratio of EC50 for antiviral activity against fully replicating pseudotype HIV1 harboring Gag deltaV370 mutant by single cycle assay to EC50 for antiviral activity against fully replicating wild type pseudotype HIV1 NLRepRluc-P373S by single cycle assay; assay type: functional
# [5] = Elimination half life in mouse at 1 mg/kg, iv; assay type: ADME, organism-based; settings: in vivo, read-out: beta t1/2 (converted)
# [6] = system: Human immunodeficiency virus 1; experiment: In vitro antiviral activity against fully replicating HIV1 harboring Gag V370A mutant by multicycle assay; assay type: functional, organism-based
# [7] = Oral bioavailability in rat at 5 mg/kg; assay type: ADME, organism-based; settings: in vivo
# [8] = system: Human immunodeficiency virus 1; experiment: In vitro antiviral activity against fully replicating pseudotype HIV1 harboring Gag A364V mutant assessed as maximum percent inhibition by single cycle assay relative to control; assay type: functional
# [9] = Toxicity in normal healthy human volunteers assessed as adverse effect at 10 mg for 15 days and followed by 30 mg; settings: in vivo, 360 h, time 15 day
# [10] = system: Human immunodeficiency virus 1; experiment: In vitro antiviral activity against fully replicating pseudotype HIV1 harboring Gag T332S/[…]/prR41G mutant assessed as maximum percent inhibition by single cycle assay relative to control; assay type: functional
# [11] = Elimination half life in mouse at 5 mg/kg, po; assay type: ADME, organism-based; settings: in vivo, read-out: beta t1/2 (converted)
# [12] = system: Human immunodeficiency virus 1; experiment: In vitro antiviral activity against HIV1 subtype F clinical isolate BZ126; assay type: functional, organism-based; settings: Human immunodeficiency virus 1, BZ126
# [13] = Elimination half life in rat at 5 mg/kg, po; assay type: ADME, organism-based; settings: in vivo, read-out: beta t1/2 (converted)
# [14] = system: Human immunodeficiency virus 1; experiment: In vitro antiviral activity against fully replicating HIV1 harboring Gag V370A/deltaV371 mutant by multicycle assay; assay type: functional, organism-based
# [15] = Oral bioavailability in Cynomolgus monkey at 5 mg/kg; assay type: ADME, organism-based, Macaca fascicularis; settings: in vivo
# [16] = Clearance in dog at 2 mg/kg, iv; assay type: ADME, organism-based, Canis lupus familiaris; settings: in vivo
# [17] = Volume of distribution at steady state in Cynomolgus monkey at 2 mg/kg, iv; assay type: ADME, organism-based, Macaca fascicularis; settings: in vivo, read-out: Vdss
# [18] = system: Human immunodeficiency virus 1; experiment: Ratio of EC50 for antiviral activity against fully replicating HIV1 harboring to Gag T332S/[…]/prR41G mutant by multicycle assay to EC50 for antiviral activity against fully replicating wild type HIV1 NLRepRluc-P373S by multicycle assay; assay type: functional
# [19] = system: Human immunodeficiency virus 1; experiment: In vitro antiviral activity against fully replicating HIV1 harboring Gag V370A mutant assessed as maximum percent inhibition by multicycle assay relative to control; assay type: functional
# [20] = Elimination half life in dog at 2 mg/kg, iv; assay type: ADME, organism-based, Canis lupus familiaris; settings: in vivo, read-out: beta t1/2 (converted)
# [21] = target: T1, Cytochrome P450 2B6 (Homo sapiens, UniProt P20813); experiment: Inhibition of CYP2B6 (unknown origin); assay type: ADME
# T1 sequence (P20813 whole entry): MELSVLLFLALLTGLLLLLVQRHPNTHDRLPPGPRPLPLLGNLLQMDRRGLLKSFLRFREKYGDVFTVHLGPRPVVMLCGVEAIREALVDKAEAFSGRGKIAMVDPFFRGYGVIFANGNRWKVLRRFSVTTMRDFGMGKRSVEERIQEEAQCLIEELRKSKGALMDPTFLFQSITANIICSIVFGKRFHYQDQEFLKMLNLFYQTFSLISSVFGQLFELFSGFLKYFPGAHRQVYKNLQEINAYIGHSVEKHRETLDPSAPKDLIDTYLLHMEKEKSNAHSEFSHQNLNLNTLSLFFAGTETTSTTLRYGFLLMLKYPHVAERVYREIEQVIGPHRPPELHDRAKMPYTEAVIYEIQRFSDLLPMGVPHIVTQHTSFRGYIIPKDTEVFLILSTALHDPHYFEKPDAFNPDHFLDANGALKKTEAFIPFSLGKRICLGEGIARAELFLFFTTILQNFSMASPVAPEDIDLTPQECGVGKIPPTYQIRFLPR
# [22] = AUC (infinity) in mouse at 1 mg/kg, iv; assay type: ADME, organism-based; settings: in vivo
# [23] = Lipophilicity, logD of compound; assay type: physicochemical; settings: octanol/water
# [24] = system: Human immunodeficiency virus 1; experiment: Ratio of EC50 for antiviral activity against fully replicating HIV1 harboring Gag V370A mutant by multicycle assay to EC50 for antiviral activity against fully replicating wild type HIV1 NLRepRluc-P373S by multicycle assay; assay type: functional
# [25] = AUC (infinity) in rat at 5 mg/kg, po; assay type: ADME, organism-based; settings: in vivo
# [26] = system: Human immunodeficiency virus 1; experiment: Binding affinity to HIV1 Gag A364V mutant assessed as dissociation half life by virus-like particle (VLP) assay
# [27] = system: Human immunodeficiency virus 1; experiment: In vitro antiviral activity against fully replicating pseudotype HIV1 harboring Gag V370A mutant by single cycle assay; assay type: functional, organism-based
# [28] = target: T2, Cytochrome P450 2C8 (Homo sapiens, UniProt P10632); experiment: Inhibition of CYP2C8 (unknown origin); assay type: ADME
# T2 sequence (P10632 whole entry): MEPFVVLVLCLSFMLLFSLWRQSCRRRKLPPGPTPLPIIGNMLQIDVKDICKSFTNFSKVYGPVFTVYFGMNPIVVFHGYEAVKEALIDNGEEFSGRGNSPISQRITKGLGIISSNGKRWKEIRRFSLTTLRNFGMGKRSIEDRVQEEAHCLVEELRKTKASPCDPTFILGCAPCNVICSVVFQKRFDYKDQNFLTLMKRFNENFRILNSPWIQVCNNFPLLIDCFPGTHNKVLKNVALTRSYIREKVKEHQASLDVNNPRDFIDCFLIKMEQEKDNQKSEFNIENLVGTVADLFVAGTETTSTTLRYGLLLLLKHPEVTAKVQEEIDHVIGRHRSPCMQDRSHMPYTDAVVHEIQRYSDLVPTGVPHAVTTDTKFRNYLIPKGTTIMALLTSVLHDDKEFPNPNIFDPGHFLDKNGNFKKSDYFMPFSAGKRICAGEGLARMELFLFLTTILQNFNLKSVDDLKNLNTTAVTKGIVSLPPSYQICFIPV
# [29] = system: Human immunodeficiency virus 1; experiment: In vitro antiviral activity against fully replicating HIV1 NL4-3 harboring Gag A364V mutant; assay type: functional, organism-based; settings: Human immunodeficiency virus 1, NL4-3
# [30] = Metabolic stability in mouse liver microsomes assessed as half life; assay type: ADME, Microsome
# [31] = Metabolic stability in human liver microsomes assessed as half life; assay type: ADME, Microsome
# [32] = Elimination half life in dog at 5 mg/kg, po; assay type: ADME, organism-based, Canis lupus familiaris; settings: in vivo, read-out: beta t1/2 (converted)
# [33] = system: Human immunodeficiency virus 1; experiment: In vitro antiviral activity against fully replicating wild type HIV1 NL4-3 in presence of human serum; assay type: functional, organism-based; settings: Human immunodeficiency virus 1, NL4-3
# [34] = system: Human immunodeficiency virus 1; experiment: In vitro antiviral activity against fully replicating pseudotype HIV1 harboring Gag V3621/V370A mutant by single cycle assay; assay type: functional, organism-based
# [35] = system: Human immunodeficiency virus 1; experiment: In vitro antiviral activity against fully replicating wild type HIV1 NL4-3; assay type: functional, organism-based; settings: Human immunodeficiency virus 1, NL4-3
# [36] = Elimination half life in Cynomolgus monkey at 2 mg/kg, iv; assay type: ADME, organism-based, Macaca fascicularis; settings: in vivo, read-out: beta t1/2 (converted)
# [37] = Metabolic stability in rat liver microsomes assessed as half life; assay type: ADME, Microsome
# [38] = target: Cytochrome P450 2C9 (Homo sapiens, UniProt P11712); experiment: Inhibition of CYP2C9 (unknown origin); assay type: ADME
# Cytochrome P450 2C9, sequence (P11712 whole entry): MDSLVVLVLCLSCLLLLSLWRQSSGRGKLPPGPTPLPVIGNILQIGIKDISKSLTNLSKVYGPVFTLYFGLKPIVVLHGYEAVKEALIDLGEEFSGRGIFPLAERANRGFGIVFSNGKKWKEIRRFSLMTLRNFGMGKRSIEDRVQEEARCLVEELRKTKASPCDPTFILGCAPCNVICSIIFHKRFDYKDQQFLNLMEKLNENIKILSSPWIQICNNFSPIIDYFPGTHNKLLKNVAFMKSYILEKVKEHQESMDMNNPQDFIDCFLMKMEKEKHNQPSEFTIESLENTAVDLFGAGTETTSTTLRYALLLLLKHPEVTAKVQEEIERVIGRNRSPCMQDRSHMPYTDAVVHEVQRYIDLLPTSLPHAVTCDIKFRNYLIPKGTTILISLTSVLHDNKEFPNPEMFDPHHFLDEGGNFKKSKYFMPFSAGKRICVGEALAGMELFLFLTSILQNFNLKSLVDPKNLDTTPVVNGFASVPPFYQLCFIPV
# [39] = system: Human immunodeficiency virus 1; experiment: In vitro antiviral activity against fully replicating pseudotype HIV1 harboring Gag deltaV370 mutant by single cycle assay; assay type: functional, organism-based
smiles,measurement,setting,value
C=C(C)[C@@H]1CC[C@]2(NCCN3CCS(=O)(=O)CC3)CC[C@]3(C)[C@H](CC[C@@H]4[C@@]5(C)CC=C(C6=CC[C@](COc7ncccc7C#N)(C(=O)O)CC6)C(C)(C)[C@@H]5CC[C@]43C)[C@@H]12,solubility,[1],< 1000 µg/mL
same,half-life,[2],> 2 h
same,Imax,[3],99%
same,Ratio EC50,[4],2.4
same,half-life,[5],10.9 h
same,EC50,[6],4 nM
same,bioavailability,[7],45.1%
same,Imax,[8],57%
same,Activity,[9],Non-Toxic
same,Imax,[10],96%
same,half-life,[11],14.5 h
same,EC50,[12],2 nM
same,half-life,[13],8.6 h
same,EC50,[14],5 nM
same,bioavailability,[15],43.5%
same,clearance,[16],0.21 mL/min/kg
same,Vd,[17],0.3 L/kg
same,Ratio EC50,[18],4
same,Imax,[19],98.5%
same,half-life,[20],26.9 h
same,IC50,[21],> 4400 nM
same,AUC(0-inf),[22],32.2 µM·h
same,logD,[23],4.74
same,Ratio EC50,[24],2
same,AUC(0-inf),[25],36.3 µM·h
same,T1/2,[26],0.483 h
same,EC50,[27],6 nM
same,IC50,[28],> 4400 nM
same,EC50,[29],5 nM
same,half-life,[30],> 2 h
same,half-life,[31],> 2 h
same,half-life,[32],26.9 h
same,EC50,[33],26 nM
same,EC50,[34],11 nM
same,EC50,[35],1.8 nM
same,half-life,[36],12.3 h
same,half-life,[37],> 2 h
same,IC50,[38],> 4400 nM
same,EC50,[39],12 nM
